Laboratory results reported in patent US9562031B1, “Phenethyldihydrobenzodioxolones and methods of use” (Sequoia Sciences, Inc., priority 2015, dated 2017).
pIC50: −log10 of the molar value. Structures can show the parent of a compound that is named as a salt.

How the values were obtained:
NCI-H460 or M14 cells = assay: in vitro antiproliferation assay (cell line not stated for the salt); type: cell-based; conditions: Homo sapiens, HCl salt
Method: For the antiproliferation assay, NCI-H460 (large cell lung carcinoma) or M14 (amelanotic melanoma) cells were grown in RPMI-1640 with 10% FBS supplemented with L-glutamine and HEPES. Cells were seeded into 96-well plates at 5×10^2 to 5×10^4 cells/well and allowed to adhere overnight; the medium was then removed. A stock solution of test compound in DMSO was diluted in medium to generate a series of working solutions. Aliquots (100 μl) of the working solutions were then added to the appropriate test wells to expose cells to the final concentrations of compound in a total volume of 100 μl. Seven different concentrations were tested, with 2-5 wells per concentration. Camptothecin was used as a positive control; wells containing vehicle without compound were used as negative controls. Plates were kept for 72 h in a 37° C., 5% CO2 incubator. After incubation, viable cells were detected with the CELLTITER 96 AQueous Non-Radioactive Cell Proliferation Assay (Promega), and IC50 values were determined using GraphPad Prism 5 software.
As stated herein, the invention also includes compounds and their salts. The HCl salt of compound 66 was prepared, and the salt retained activity in the in vitro antiproliferation assay (IC50 5-7 μM).

SK-OV-3 cells = assay: NCI-60 panel antiproliferation, SK-OV-3; type: cell-based, human; conditions: NCI 60-cell panel
Method: (§1) Bifidenone and Compound 37 were tested for antiproliferation activity against the NCI-60 panel of cancer cell lines. COMPARE analysis was then conducted to compare the activity “fingerprint” of bifidenone to those of known classes of compounds (Zhou, B.-N., Hoch, J. M., Johnson, R. K., Mattern, M. R., Eng, W.-K., Ma, J., Hecht, S. M., Newman, D. J., Kingston, D. G. I., 2000. Use of COMPARE Analysis to Discover New Natural Product Drugs: Isolation of Camptothecin and 9-Methoxycamptothecin from a New Source. Journal of Natural Products 63, 1273-1276.).

A498 cells = assay: NCI-60 panel antiproliferation, A498; type: cell-based, human; conditions: NCI 60-cell panel
Method: as §1

BT-549 cells = assay: NCI-60 panel antiproliferation, BT-549; type: cell-based, human; conditions: NCI 60-cell panel
Method: as §1

MDA-MB-468 cells = assay: NCI-60 panel antiproliferation, MDA-MB-468; type: cell-based, human; conditions: NCI 60-cell panel
Method: as §1

MALME-3M cells = assay: NCI-60 panel antiproliferation, MALME-3M; type: cell-based, human; conditions: NCI 60-cell panel
Method: as §1

HT29 cells = assay: NCI-60 panel antiproliferation, HT29; type: cell-based, human; conditions: NCI 60-cell panel
Method: as §1

A549 cells = assay: NCI-60 panel antiproliferation, A549; type: cell-based, human; conditions: NCI 60-cell panel
Method: as §1

NCI-H460 cells = assay: NCI-60 panel antiproliferation, NCI-H460; type: cell-based, human; conditions: NCI 60-cell panel
Method: as §1

HOP-62 cells = assay: NCI-60 panel antiproliferation, HOP-62; type: cell-based, human; conditions: NCI 60-cell panel
Method: as §1

MOLT-4 cells = assay: NCI-60 panel antiproliferation, MOLT-4; type: cell-based, human; conditions: NCI 60-cell panel
Method: as §1

UACC-62 cells = assay: NCI-60 panel antiproliferation, UACC-62; type: cell-based, human; conditions: NCI 60-cell panel
Method: as §1

SW-620 cells = assay: NCI-60 panel antiproliferation, SW-620; type: cell-based, human; conditions: NCI 60-cell panel
Method: as §1

HL-60 cells = assay: NCI-60 panel antiproliferation, HL-60; type: cell-based, human; conditions: NCI 60-cell panel
Method: as §1

COLO205 cells = assay: NCI-60 panel antiproliferation, COLO205; type: cell-based, human; conditions: NCI 60-cell panel
Method: as §1

NCI-ADR/RES cells = assay: NCI-60 panel antiproliferation, NCI-ADR/RES; type: cell-based, human; conditions: NCI 60-cell panel
Method: as §1

SR cells = assay: NCI-60 panel antiproliferation, SR; type: cell-based, human; conditions: NCI 60-cell panel
Method: as §1

SK-MEL-28 cells = assay: NCI-60 panel antiproliferation, SK-MEL-28; type: cell-based, human; conditions: NCI 60-cell panel
Method: as §1

SN12C cells = assay: NCI-60 panel antiproliferation, SN12C; type: cell-based, human; conditions: NCI 60-cell panel
Method: as §1

HCT-15 cells = assay: NCI-60 panel antiproliferation, HCT-15; type: cell-based, human; conditions: NCI 60-cell panel
Method: as §1

786-0 cells = assay: NCI-60 panel antiproliferation, 786-0; type: cell-based, human; conditions: NCI 60-cell panel
Method: as §1

OVCAR-5 cells = assay: NCI-60 panel antiproliferation, OVCAR-5; type: cell-based, human; conditions: NCI 60-cell panel
Method: as §1

Caki-1 cells = assay: NCI-60 panel antiproliferation, Caki-1; type: cell-based, human; conditions: NCI 60-cell panel
Method: as §1

RPMI-8226 cells = assay: NCI-60 panel antiproliferation, RPMI-8226; type: cell-based, human; conditions: NCI 60-cell panel
Method: as §1

NCI-H23 cells = assay: NCI-60 panel antiproliferation, NCI-H23; type: cell-based, human; conditions: NCI 60-cell panel
Method: as §1

NCI-H522 cells = assay: NCI-60 panel antiproliferation, NCI-H522; type: cell-based, human; conditions: NCI 60-cell panel
Method: as §1

IGR-OV1 cells = assay: NCI-60 panel antiproliferation, IGR-OV1; type: cell-based, human; conditions: NCI 60-cell panel
Method: as §1

NCI-H322M cells = assay: NCI-60 panel antiproliferation, NCI-H322M; type: cell-based, human; conditions: NCI 60-cell panel
Method: as §1

UO-31 cells = assay: NCI-60 panel antiproliferation, UO-31; type: cell-based, human; conditions: NCI 60-cell panel
Method: as §1

Hs578T cells = assay: NCI-60 panel antiproliferation, Hs578T; type: cell-based, human; conditions: NCI 60-cell panel
Method: as §1

SF-268 cells = assay: NCI-60 panel antiproliferation, SF-268; type: cell-based, human; conditions: NCI 60-cell panel
Method: as §1

MDA-MB-231 cells = assay: NCI-60 panel antiproliferation, MDA-MB-231; type: cell-based, human; conditions: NCI 60-cell panel
Method: as §1

OVCAR-4 cells = assay: NCI-60 panel antiproliferation, OVCAR-4; type: cell-based, human; conditions: NCI 60-cell panel
Method: as §1

PC-3 cells = assay: NCI-60 panel antiproliferation, PC-3; type: cell-based, human; conditions: NCI 60-cell panel
Method: as §1

CCRF-CEM cells = assay: NCI-60 panel antiproliferation, CCRF-CEM; type: cell-based, human; conditions: NCI 60-cell panel
Method: as §1

M14 cells = assay: NCI-60 panel antiproliferation, M14; type: cell-based, human; conditions: NCI 60-cell panel
Method: as §1

HCC-2998 cells = assay: NCI-60 panel antiproliferation, HCC-2998; type: cell-based, human; conditions: NCI 60-cell panel
Method: as §1

OVCAR-3 cells = assay: NCI-60 panel antiproliferation, OVCAR-3; type: cell-based, human; conditions: NCI 60-cell panel
Method: as §1

RXF-393 cells = assay: NCI-60 panel antiproliferation, RXF-393; type: cell-based, human; conditions: NCI 60-cell panel
Method: as §1

MDA-MB-435 cells = assay: NCI-60 panel antiproliferation, MDA-MB-435; type: cell-based, human; conditions: NCI 60-cell panel
Method: as §1

MCF-7 cells = assay: NCI-60 panel antiproliferation, MCF-7; type: cell-based, human; conditions: NCI 60-cell panel
Method: as §1

SK-Mel-2 cells = assay: NCI-60 panel antiproliferation, SK-MEL-2; type: cell-based, human; conditions: NCI 60-cell panel
Method: as §1

LOX IMVI cells = assay: NCI-60 panel antiproliferation, LOX IMVI; type: cell-based, human; conditions: NCI 60-cell panel
Method: as §1

SNB-75 cells = assay: NCI-60 panel antiproliferation, SNB-75; type: cell-based, human; conditions: NCI 60-cell panel
Method: as §1

K-562 cells = assay: NCI-60 panel antiproliferation, K-562; type: cell-based, human; conditions: NCI 60-cell panel
Method: as §1

SNB-19 cells = assay: NCI-60 panel antiproliferation, SNB-19; type: cell-based, human; conditions: NCI 60-cell panel
Method: as §1

EKVX cells = assay: NCI-60 panel antiproliferation, EKVX; type: cell-based, human; conditions: NCI 60-cell panel
Method: as §1

SF-539 cells = assay: NCI-60 panel antiproliferation, SF-539; type: cell-based, human; conditions: NCI 60-cell panel
Method: as §1

OVCAR-8 cells = assay: NCI-60 panel antiproliferation, OVCAR-8; type: cell-based, human; conditions: NCI 60-cell panel
Method: as §1

NCI-H226 cells = assay: NCI-60 panel antiproliferation, NCI-H226; type: cell-based, human; conditions: NCI 60-cell panel
Method: as §1

TK-10 cells = assay: NCI-60 panel antiproliferation, TK-10; type: cell-based, human; conditions: NCI 60-cell panel
Method: as §1

T-47D cells = assay: NCI-60 panel antiproliferation, T-47D; type: cell-based, human; conditions: NCI 60-cell panel
Method: as §1

ACHN cells = assay: NCI-60 panel antiproliferation, ACHN; type: cell-based, human; conditions: NCI 60-cell panel
Method: as §1

KM12 cells = assay: NCI-60 panel antiproliferation, KM12; type: cell-based, human; conditions: NCI 60-cell panel
Method: as §1

SF-295 cells = assay: NCI-60 panel antiproliferation, SF-295; type: cell-based, human; conditions: NCI 60-cell panel
Method: as §1

HOP-92 cells = assay: NCI-60 panel antiproliferation, HOP-92; type: cell-based, human; conditions: NCI 60-cell panel
Method: as §1

HCT-116 cells = assay: NCI-60 panel antiproliferation, HCT-116; type: cell-based, human; conditions: NCI 60-cell panel
Method: as §1

UACC-257 cells = assay: NCI-60 panel antiproliferation, UACC-257; type: cell-based, human; conditions: NCI 60-cell panel
Method: as §1

DU-145 cells = assay: NCI-60 panel antiproliferation, DU-145; type: cell-based, human; conditions: NCI 60-cell panel
Method: as §1

SK-Mel-5 cells = assay: NCI-60 panel antiproliferation, SK-MEL-5; type: cell-based, human; conditions: NCI 60-cell panel
Method: as §1

U251 cells = assay: NCI-60 panel antiproliferation, U251; type: cell-based, human; conditions: NCI 60-cell panel
Method: as §1

COc1cc(F)c(C[C@H](C)[C@]23C[C@H](Cc4ccncc4)C(=O)C=C2OCO3)cc1O [HCl salt of compound 66, (6S,7aR)-7a-((S)-1-(2-fluoro-5-hydroxy-4-methoxyphenyl)propan-2-yl)-6-(pyridin-4-ylmethyl)-7,7a-dihydrobenzo[d][1,3]dioxol-5(6H)-one hydrochloride]
pIC50 (NCI-H460 or M14 cells): 5.15 to 5.30

C=CC[C@H]1C[C@]2([C@@H](C)Cc3ccc(OC)c(OC)c3)OCOC2=CC1=O [bifidenone, Bifidenone]
pIC50 (SK-OV-3 cells): 6.57
pIC50 (A498 cells): 6.34
pIC50 (BT-549 cells): 6.74
pIC50 (MDA-MB-468 cells): 6.52
pIC50 (MALME-3M cells): 7.05
pIC50 (HT29 cells): 6.51
pIC50 (A549 cells): 6.59
pIC50 (NCI-H460 cells): 6.49
pIC50 (HOP-62 cells): 6.49
pIC50 (MOLT-4 cells): 6.77
pIC50 (UACC-62 cells): 6.85
pIC50 (SW-620 cells): 6.89
pIC50 (HL-60 cells): 6.92
pIC50 (COLO205 cells): 6.40
pIC50 (NCI-ADR/RES cells): 6.77
pIC50 (SR cells): 7.10
pIC50 (SK-MEL-28 cells): 6.89
pIC50 (SN12C cells): 6.48
pIC50 (HCT-15 cells): 6.64
pIC50 (786-0 cells): 6.49
pIC50 (OVCAR-5 cells): 6.28
pIC50 (Caki-1 cells): 7.00
pIC50 (RPMI-8226 cells): 6.60
pIC50 (NCI-H23 cells): 6.21
pIC50 (NCI-H522 cells): 6.82
pIC50 (IGR-OV1 cells): 6.38
pIC50 (NCI-H322M cells): 6.34
pIC50 (UO-31 cells): 6.24
pIC50 (Hs578T cells): 6.68
pIC50 (SF-268 cells): 6.66
pIC50 (MDA-MB-231 cells): 6.59
pIC50 (OVCAR-4 cells): 6.54
pIC50 (PC-3 cells): 6.72
pIC50 (CCRF-CEM cells): 6.82
pIC50 (M14 cells): 6.70
pIC50 (HCC-2998 cells): 5.85
pIC50 (OVCAR-3 cells): 6.77
pIC50 (RXF-393 cells): 6.11
pIC50 (MDA-MB-435 cells): 7.15
pIC50 (MCF-7 cells): 6.77
pIC50 (SK-Mel-2 cells): 6.89
pIC50 (LOX IMVI cells): 6.41
pIC50 (SNB-75 cells): 6.57
pIC50 (K-562 cells): 6.74
pIC50 (SNB-19 cells): 6.52
pIC50 (EKVX cells): 6.55
pIC50 (SF-539 cells): 6.59
pIC50 (OVCAR-8 cells): 6.33
pIC50 (NCI-H226 cells): 6.09
pIC50 (TK-10 cells): 6.48
pIC50 (T-47D cells): 6.60
pIC50 (ACHN cells): 6.07
pIC50 (KM12 cells): 6.49
pIC50 (SF-295 cells): 6.39
pIC50 (HOP-92 cells): 6.62
pIC50 (HCT-116 cells): 6.31
pIC50 (UACC-257 cells): 6.80
pIC50 (DU-145 cells): 6.08
pIC50 (SK-Mel-5 cells): 6.60
pIC50 (U251 cells): 6.21
